Data published in patent US20180141913A1 (EISAI R & D MANAGEMENT CO., LTD., priority 2016, published 2018).
Where two headings read alike, the source gives them in different places.

How the values were obtained:
[1] = system: MCF7-WT cells (MCF7 ER-alpha wildtype); experiment: In vitro proliferation (viability) assay, MCF7-WT cells; format: cell-based; settings: Homo sapiens
Experimental: (§1) MCF7 BUS cells (Coser, et al., (2003) PNAS 100(24): 13994-13999) were maintained in Dulbecco's Modified Eagle Medium supplemented with 10% FBS, 4 mM L-glutamine and 1× non-essential amino acids. Lenti-X 293T cells (Clontech, Cat #632180) were routinely cultured in Dulbecco's Modified Eagle Medium supplemented with 10% FBS.
(§2) The QuikChange II XL Site-Directed Mutagenesis Kit (Agilent Technologies, Cat #200523) was used to generate Y537S, Y537C, Y537N and D538G mutations within the ERα exon 8. Wild-type ESR1 cDNA (GeneCopoeia Inc., Cat# GC-A0322, accession no. NM 000125) was used as a template with the following mutagenesis primers (where the underlined nucleotides represent site mutations); Y537S: F-AAGAACGTGGTGCCCCTCTCTGACCTGCTGCTGGAGATG (SEQ ID NO: 1), R-CATCTCCAGCAGCAGGTCAGAGAGGGGCACCACGTTCTT (SEQ ID NO: 2); Y537N: F-AAGAACGTGGTGCCCCTCAATGACCTGCTGCTGGAGATG (SEQ ID NO: 3), R-CATCTCCAGCAGCAGGTCATTGAGGGGCACCACGTTCTT (SEQ ID NO: 4); Y537C: F-AAGAACGTGGTGCCCCTCTGTGACCTGCTGCTGGAGATG (SEQ ID NO: 5), R-CATCTCCAGCAGCAGGTCACAGAGGGGCACCACGTTCTT (SEQ ID NO: 6); D538G: F-AACGTGGTGCCCCTCTATGGCCTGCTGCTGGAGATGCTG (SEQ ID NO: 7), R-CAGCATCTCCAGCAGCAGGCCATAGAGGGGCACCACGTT (SEQ ID NO: 8). WT and mutant ESR1 cDNAs were cloned into the designation lentiviral vector pLenti6.3/V5-Dest (Invitrogen, Cat #V533-06). To make lentivirus, DNAs (WT and mutant ESR1) were co-transfected with packaging plasmids into Lenti-X 293T cells using TransIT (Mirus, Cat #MIR 2700). 48 h post-transfection, virus containing media was filtered and added to MCF7 cells in the presence of 8 µg/ml polybrene overnight. Two days following infection, cells were placed under selection with 10 µg/ml blasticidin for 2 weeks for stable expression.
(§3) MCF7-WT and -Y537S cells were seeded at 1500 cells/well in black-walled 96-well plates (assay plates, Costar, Cat #3904). In parallel, cells were also seeded in a separate 96-well plate (8 wells/cell line, control plate) for which a CTG (CellTiter-Glo® Luminescent Viability Assay, Promega, Cat #G7572) was measured the following day (day 0 reading). The day 0 reading was used for the GI50 calculation at the termination of the experiment. The day following seeding, compounds were added to assay plates. Briefly, a 1:4 serial dilution was prepared in DMSO at 200× final concentration for a total of 10 concentrations (9 dilutions containing compound and one is DMSO only). Serially diluted compounds were pipetted into medium to prepare a compound-medium mix at 10× final concentration. 10 μl of compound-medium mix was added to MCF7-WT and -Y537S cells at 3 wells/concentration (triplicate for each concentration). On day 3, media/compound was removed and replaced with fresh media/compound as described above. On day 6, CTG was measured and compared to day 0 readings from control plate to assess GI50.

[2] = system: MCF7-Y537S cells (MCF7 ER-alpha Y537S mutant); experiment: In vitro proliferation (viability) assay, MCF7-Y537S cells; format: cell-based; settings: Homo sapiens
Experimental: as §1, §2, §3

[3] = MCF7, CellTiter-Glo, day 6 vs day 0, average ± standard deviation, free base and/or salt forms, read-out: MCF7 WT GI50
[4] = MCF7, CellTiter-Glo, day 6 vs day 0, average ± standard deviation, free base and/or salt forms, read-out: MCF7 Y537S GI50
[5] = MCF7, read-out: MCF7 WT GI50 (nM)
[6] = MCF7, read-out: MCF7 Y537S GI50 (nM)

SMILES	GI50 [1, 3] [nM]	GI50 [2, 4] [nM]	GI50 [1, 5] [nM]	GI50 [2, 6] [nM]
CN(C)C(=O)CCCNCCOc1ccc(/C(=C(/CC(F)(F)F)c2ccccc2)c2ccc3[nH]nc(F)c3c2)cc1 [Compound 1, (E)-N,N-dimethyl-4-((2-(4-(4,4,4-trifluoro-1-(3-fluoro-1H-indazol-5-yl)-2-phenylbut-1-en-1-yl)phenoxy)ethyl)amino)butanamide]	0.36 ± 0.16	3.79 ± 1.92		
CC/C(=C(/c1ccc(OCCNCCCC(=O)N(C)C)cc1)c1ccc2[nH]ncc2c1)c1ccccc1 [Compound 4, (E)-4-(2-(4-(1-(1H-indazol-5-yl)-2-phenylbut-1-enyl)phenoxy)ethylamino)-N,N-dimethylbutanamide]	4.09 ± 2.74	46.4 ± 23.2		
CNC(=O)/C=C/CNCCOc1ccc(/C(CC(F)(F)F)=C(\c2ccccc2)c2ccc3[nH]nc(F)c3c2)cn1 [Compound 5, (E)-N-methyl-4-((2-((5-((E)-4,4,4-trifluoro-1-(3-fluoro-1H-indazol-5-yl)-1-phenylbut-1-en-2-yl)pyridin-2-yl)oxy)ethyl)amino)but-2-enamide]	88.5 ± 42.7	180 ± 227		
CNC(=O)/C=C/CCNCCOc1ccc(/C(=C(/CC(F)(F)F)c2ccccc2)c2ccc3[nH]nc(F)c3c2)cn1 [Compound 6, (E)-N-methyl-5-((2-((5-((Z)-4,4,4-trifluoro-1-(3-fluoro-1H-indazol-5-yl)-2-phenylbut-1-en-1-yl)pyridin-2-yl)oxy)ethyl)amino)pent-2-enamide]	0.38	5.5 ± 0.47		
CNC(=O)CCCCNCCOc1ccc(/C(=C(/CC(F)(F)F)c2ccccc2)c2ccc3[nH]nc(F)c3c2)cn1 [Compound 8, (Z)-N-methyl-5-((2-((5-(4,4,4-trifluoro-1-(3-fluoro-1H-indazol-5-yl)-2-phenylbut-1-en-1-yl)pyridin-2-yl)oxy)ethyl)amino)pentanamide]	0.7 ± 0.27	14.7 ± 0.55		
CNC(=O)/C=C/CNCCOc1ccc(/C(=C(\c2ccccc2)C2CCC2)c2ccc3[nH]ncc3c2)cc1 [Compound 11, (E)-4-((2-(4-((E)-2-cyclobutyl-1-(1H-indazol-5-yl)-2-phenylvinyl)phenoxy)ethyl)amino)-N-methylbut-2-enamide]	2.08 ± 1.55	32.7 ± 22.2		
O=C1CCCN1CCOc1ccc(/C(=C(/CC(F)(F)F)c2ccccc2)c2ccc3[nH]nc(F)c3c2)cn1 [Compound 12, (Z)-1-(2-((5-(4,4,4-trifluoro-1-(3-fluoro-1H-indazol-5-yl)-2-phenylbut-1-en-1-yl)pyridin-2-yl)oxy)ethyl)pyrrolidin-2-one]	1.45	24		
O=C(/C=C/CNCCOc1ccc(/C(=C(/CC(F)(F)F)c2ccccc2)c2ccc3[nH]ncc3c2)cc1)N1CCCC1 [Compound 14, (E)-1-(pyrrolidin-1-yl)-4-((2-(4-((E)-4,4,4-trifluoro-1-(1H-indazol-5-yl)-2-phenylbut-1-en-1-yl)phenoxy)ethyl)amino)but-2-en-1-one]	1.73 ± 0.14	7.65 ± 3.38		
O=C(/C=C/CNCCOc1ccc(/C(=C(/CC(F)(F)F)c2ccccc2)c2ccc3[nH]nc(F)c3c2)cn1)N1CCOCC1 [Compound 18, (E)-1-morpholino-4-(2-(5-((Z)-4,4,4-trifluoro-1-(3-fluoro-1H-indazol-5-yl)-2-phenylbut-1-enyl)pyridin-2-yloxy)ethylamino)but-2-en-1-one]	0.72 ± 0.24	4.91 ± 0.65		
O=C(/C=C/CNCCOc1ccc(/C(=C(/CC(F)(F)F)c2ccccc2)c2ccc3[nH]ncc3c2)cn1)N1CCOCC1 [Compound 19, (E)-1-morpholino-4-((2-((5-((Z)-4,4,4-trifluoro-1-(1H-indazol-5-yl)-2-phenylbut-1-en-yl)pyridin-2-yl)oxy)ethyl)amino)but-2-en-1-one]	0.66 ± 0.05	3.15 ± 0.01		
COCCNC(=O)/C=C/CNCCOc1ccc(/C(=C(/CC(F)(F)F)c2ccccc2)c2ccc3[nH]nc(F)c3c2)cn1 [Compound 20, (E)-N-(2-methoxyethyl)-4-((2-((5-((Z)-4,4,4-trifluoro-1-(3-fluoro-1H-indazol-5-yl)-2-phenylbut-1-en-1-yl)pyridin-2-yl)oxy)ethyl)amino)but-2-enamide]	0.66 ± 0.13	6.08 ± 2.69		
Cl.[2H]C([2H])([2H])N(C(=O)/C=C/CNCCOc1ccc(/C(=C(/CC(F)(F)F)c2ccccc2)c2ccc3[nH]nc(F)c3c2)cn1)C([2H])([2H])[2H] [Compound 24, (E)-N,N-di(^2H3)methyl-4-((2-((5-((Z)-4,4,4-trifluoro-1-(3-fluoro-1H-indazol-5-yl)-2-phenylbut-1-en-1-yl)pyridin-2-yl)oxy)ethyl)amino)but-2-enamide]			0.45 ± 0.11	3.34 ± 1.14
Cl.[2H]C([2H])([2H])N(C(=O)/C=C/CNCCOc1ccc(/C(=C(/CC(F)(F)F)c2ccccc2)c2ccc3[nH]ncc3c2)cn1)C([2H])([2H])[2H] [Compound 25, (E)-N,N-di(H3)methyl-4-((2-((5-((Z)-4,4,4-trifluoro-1-(1H-indazol-5-yl)-2-phenylbut-1-en-1-yl)pyridin-2-yl)oxy)ethyl)amino)but-2-enamide]	0.38 ± 0.16	1.58 ± 0.23		
CC/C(=C(/c1ccc(OCCNC/C=C/C(=O)NC)nc1)c1ccc2[nH]ncc2c1)c1ccccc1 [Compound 28, (E)-4-((2-((5-((Z)-1-(1H-indazol-5-yl)-2-phenylbut-1-en-1-yl)pyridin-2-yl)oxy)ethyl)amino)-N-methylbut-2-enamide]	4.12 ± 1.6	9.08 ± 5.26		
O=C(/C=C/CNCCOc1ccc(/C(=C(\c2ccccc2)C2CCC2)c2ccc3[nH]ncc3c2)cc1)N1CCCC1 [Compound 35]	3.06 ± 0.25	27.3 ± 19.9		
O=C(CCCNCCOc1ccc(/C(=C(/CC(F)(F)F)c2ccccc2)c2ccc3[nH]nc(F)c3c2)cc1)N1CCCC1 [Compound 41, (E)-1-(pyrrolidin-1-yl)-4-((2-(4-(4,4,4-trifluoro-1-(3-fluoro-1H-indazol-5-yl)-2-phenylbut-1-en-1-yl)phenoxy)ethyl)amino)butan-1-one]	0.24 ± 0.04	9.38 ± 7.61		
O=C(CCCNCCOc1ccc(/C(=C(/CC(F)(F)F)c2ccccc2)c2ccc3[nH]nc(F)c3c2)cn1)N1CCCC1 [Compound 43]			0.15	3.21
CNC(=O)/C=C/CNCCOc1ncc(/C(=C(/CC(F)(F)F)c2ccccc2)c2ccc3[nH]nc(F)c3c2)cn1 [Compound 45, (E)-N-methyl-4-((2-((5-((Z)-4,4,4,4-trifluoro-1-(3-fluoro-1H-indazol-5-yl)-2-phenylbut-1-en-1-yl)pyrimidin-2-yl)oxy)ethyl)amino)but-2-enamide]	23.2 ± 9.42	71 ± 8.63		
CNC(=O)/C=C/CNCCOc1ccc(/C(=C(/CC(F)(F)F)c2ccc(F)cc2Cl)c2ccc3[nH]ncc3c2)cc1 [Compound 46, (E)-4-((2-(4-((E)-2-(2-chloro-4-fluorophenyl)-4,4,4-trifluoro-1-(1H-indazol-5-yl)but-1-en-1-yl)phenoxy)ethyl)amino)-N-methylbut-2-enamide]	1.38 ± 0.44	13.8 ± 5.1		
CNC(=O)/C=C/CNCCOc1ccc(/C(=C(/CC(F)(F)F)c2ccc(F)cc2Cl)c2ccc3[nH]nc(F)c3c2)cc1 [Compound 47, (E)-4-((2-(4-((E)-2-(2-chloro-4-fluorophenyl)-4,4,4-trifluoro-1-(3-fluoro-1H-indazol-5-yl)but-1-en-1-yl)phenoxy)ethyl)amino)-N-methylbut-2-enamide]	0.64 ± 0.4	7.25 ± 8.77		
